Test results: patent US7029865B2, “DNA molecules encoding the melanocortin 4 receptor protein from rhesus monkey” (Merck & Co., Inc., priority 1998, dated 2006)
pIC50: −log10 of the molar value.

Test system: rhMC-4R
Assay: Competitive binding assay, [125I]-NDP alpha MSH, membranes from rhesus MC-4R transfected cells
Conditions: read-out: IC50 rhMC-4R
Protocol: Reactions were incubated for 1 hour without shaking and then filtered through 96-well filter plates (Packard corp.). Filters were washed three times with TNE buffer (50 mM Tris pH 7.4, 5 mM EDTA, 150 mM NaCl), dried and counted using Microscint-20 in a Topcount scintillation counter (Packard).
Membranes prepared from rhesus MC-4R transfected cells were evaluated alongside membranes prepared from human MC-4R, MC-4R, and MC-5R expressing cells.

rhMC-4R, sequence (as listed by the source): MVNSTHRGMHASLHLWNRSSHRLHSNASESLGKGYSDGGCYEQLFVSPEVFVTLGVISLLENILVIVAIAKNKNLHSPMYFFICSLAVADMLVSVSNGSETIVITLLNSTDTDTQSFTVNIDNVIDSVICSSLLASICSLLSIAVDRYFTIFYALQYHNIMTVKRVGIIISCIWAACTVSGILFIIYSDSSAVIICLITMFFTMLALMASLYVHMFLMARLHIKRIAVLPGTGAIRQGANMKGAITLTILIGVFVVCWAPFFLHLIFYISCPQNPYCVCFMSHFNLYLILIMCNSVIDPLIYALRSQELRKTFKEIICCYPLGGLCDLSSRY

Substance: NDP-alpha-MSH
- pIC50: 8.89
